Earlier results as cited in patent publication US20090004360A1, “Taste Potentiator Compositions in Oral Delivery Systems” (CADBURY ADAMS USA LLC, priority 2007, published 2009).
Peptide text beside a SMILES is read from it.

Legend:
[1] = not given; remark: listed apart in the source

SMILES: COC(=O)[C@H](Cc1ccccc1)NC(=O)[C@@H](N)CC(=O)O [aspartame, L-aspartyl-L-phenylalanine methyl ester] (HELM PEPTIDE1{D.F.[CO[*:1]]}$$$$V2.0)
- sweetness relative to sucrose (recognized value, 0.05 g in 100 ml isosweet to 10 g sucrose in 100 ml): 200 times

SMILES: O=C(O)c1ccc(O)cc1O [2,4-DHB, 2,4-Dihydroxybenzoic acid]
- effect on sweetness of a sucrose solution ([1]; 0.2% added to a 5% sucrose solution, Canadian Patent No. 1208966): increase in sweetness
- effect on the sweetness intensity of both sucralose and aspartame ([1]; FIGS. 1 and 2 and Tables 1 and 2 of U.S. Pat. No. 6,461,658): slightly inhibitory effect
- effect on sweetness of aspartame ([1]; used with aspartame, WO99/15032): increase sweetness synergistically
- length of time during which sucralose sweetness is perceived ([1]; with sucralose, U.S. Pat. No. 6,461,658): significantly reducing the length of time

SMILES: O=C(O)c1cccc(O)c1 [Example 3-HB, 3-hydroxybenzoic acid]
- effect on sweetness of sucrose, aspartame and saccharin ([1]; pH 2.0 to 5.5, European Patent No. 0132444 and U.S. Pat. No. 4,627,987): enhance sweetness

SMILES: OCC(O)CO [Glycerin]
- sweetness relative to cane sugar (in vivo): about 60%
